Results taken from patent US6737383B1, “Herbicidal oxadiazolidines” (priority 1999, dated 2004).

Assays:
cocklebur = assay: Test B pre/postemergence cocklebur; assay type: in vivo, Xanthium strumarium
In short: (§1)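 Herbicidal effect was estimated by eye on a ten-point control scale after plants spent twelve to sixteen days in a greenhouse following soil or foliar treatment. Foliar sprays targeted plants at one to four leaves; all doses were formulated in a non-phytotoxic solvent with surfactant.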

duck salad = assay: Test B flood test duck salad; assay type: in vivo, Heteranthera limosa
In short: (§2)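 Read-out is a visual response score from 0 (no effect) to 10 (complete control), assigned by comparison with untreated controls. Treatment was applied at the 2-leaf stage, and plants stayed in the greenhouse for twelve to sixteen days before scoring.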

rice = assay: Test B flood test rice; assay type: in vivo, Oryza sativa
In short: as §2

smallflower flatsedge = assay: Test B flood test smallflower flatsedge; assay type: in vivo, Cyperus difformis
In short: as §2

corn = assay: Test B pre/postemergence corn; assay type: in vivo, Zea mays
In short: as §1

crabgrass = assay: Test B pre/postemergence crabgrass; assay type: in vivo, Digitaria sanguinalis
In short: as §1

morningglory = assay: Test B pre/postemergence morningglory; assay type: in vivo, Ipomoea hederacea
In short: as §1

purple nutsedge = assay: Test B pre/postemergence purple nutsedge; assay type: in vivo, Cyperus rotundus
In short: as §1

rape = assay: Test B pre/postemergence rape; assay type: in vivo, Brassica napus
In short: as §1

bedstraw = assay: Test B pre/postemergence bedstraw; assay type: in vivo, Galium aparine; details: Preemergence; for Plant response rating, Bedstraw: scale of 0 to 10 where 0 is no effect and 10 is complete control; for Bedstraw plant response rating: scale 0 to 10, 0 is no effect, 10 is complete control
In short: as §1

soybean = assay: Test B pre/postemergence soybean; assay type: in vivo, Glycine max
In short: as §1

giant foxtail = assay: Test B pre/postemergence giant foxtail; assay type: in vivo, Setaria faberii
In short: as §1

wild oat = assay: Test B pre/postemergence wild oat; assay type: in vivo, Avena fatua
In short: as §1

wheat = assay: Test B pre/postemergence wheat; assay type: in vivo, Triticum aestivum
In short: as §1

velvetleaf = assay: Test B pre/postemergence velvetleaf; assay type: in vivo, Abutilon theophrasti
In short: as §1

pigweed = assay: Test B pre/postemergence pigweed; assay type: in vivo, Amaranthus retroflexus
In short: as §1

[1] = Postemergence, Rate 250 g/ha, scale 0 to 10
[2] = Postemergence, Rate 500 g/ha, scale of 0 to 10 where 0 is no effect and 10 is complete control
[3] = Preemergence, Rate 62 g/ha, scale of 0 to 10 where 0 is no effect and 10 is complete control
[4] = Preemergence, Rate 125 g/ha, scale of 0 to 10 where 0 is no effect and 10 is complete control
[5] = Preemergence, Rate 250 g/ha, scale 0 to 10, 0 is no effect, 10 is complete control
[6] = Preemergence, Rate 500 g/ha, scale 0 to 10, 0 is no effect, 10 is complete control
[7] = Rate 62 g/ha, Postemergence, scale 0 to 10 (0 no effect, 10 complete control)
[8] = Rate 125 g/ha, Postemergence, scale 0 to 10, 0 is no effect, 10 is complete control
[9] = Rate 62 g/ha, flood test species, Pre-emergence, visual evaluation after twelve to sixteen days
[10] = Rate 125 g/ha, under heading Pre-emergence, flood test species, visual evaluation after twelve to sixteen days
[11] = Rate 250 g/ha, Pre-emergence (flood test species), scale 0 to 10, 0 is no effect, 10 is complete control
[12] = Rate 500 g/ha, Pre-emergence, flood test species, scale 0 to 10 (0 no effect, 10 complete control)

SMILES: CCc1nc(C)c(C(C)n2c(=O)on(C(=O)N(c3ccc(F)cc3)C(C)C)c2=O)s1 (stereo not drawn) [Compound 449]
- Cocklebur plant response rating (cocklebur; [1]): 2
- Cocklebur plant response rating (cocklebur; [2]): 3
- Plant response rating, Cocklebur (cocklebur; [3]): 0
- Plant response rating, Cocklebur (cocklebur; [4]): 0
- Cocklebur plant response rating (cocklebur; [5]): 0
- Cocklebur plant response rating (cocklebur; [6]): 0
- Cocklebur plant response rating (cocklebur; [7]): 0
- Cocklebur plant response rating (cocklebur; [8]): 0
- Plant response rating, Ducksalad (0 to 10 scale, 0 is no effect, 10 is complete control) (duck salad; [9]): 0
- Ducksalad plant response rating (0 to 10 scale, 0 is no effect, 10 is complete control) (duck salad; [10]): 0
- Ducksalad plant response rating (duck salad; [11]): 0
- Ducksalad plant response rating (duck salad; [12]): 0
- Plant response rating, Rice (0 to 10 scale, 0 is no effect, 10 is complete control) (rice; [9]): 0
- Rice plant response rating (0 to 10 scale, 0 is no effect, 10 is complete control) (rice; [10]): 0
- Rice plant response rating (rice; [11]): 0
- Rice plant response rating (rice; [12]): 0
- Plant response rating, S. Flatsedge (0 to 10 scale, 0 is no effect, 10 is complete control) (smallflower flatsedge; [9]): 0
- S. Flatsedge plant response rating (0 to 10 scale, 0 is no effect, 10 is complete control) (smallflower flatsedge; [10]): 0
- S. Flatsedge plant response rating (smallflower flatsedge; [11]): 0
- S. Flatsedge plant response rating (smallflower flatsedge; [12]): 0
- Corn plant response rating (corn; [1]): 0
- Corn plant response rating (corn; [2]): 0
- Plant response rating, Corn (corn; [3]): 0
- Plant response rating, Corn (corn; [4]): 0
- Corn plant response rating (corn; [5]): 0
- Corn plant response rating (corn; [6]): 0
- Corn plant response rating (corn; [7]): 0
- Corn plant response rating (corn; [8]): 0
- Crabgrass plant response rating (crabgrass; [1]): 2
- Crabgrass plant response rating (crabgrass; [2]): 2
- Plant response rating, Crabgrass (crabgrass; [3]): 0
- Plant response rating, Crabgrass (crabgrass; [4]): 3
- Crabgrass plant response rating (crabgrass; [5]): 9
- Crabgrass plant response rating (crabgrass; [6]): 9
- Crabgrass plant response rating (crabgrass; [7]): 0
- Morningglory plant response rating (morningglory; [1]): 5
- Morningglory plant response rating (morningglory; [2]): 5
- Plant response rating, Morningglory (morningglory; [3]): 0
- Plant response rating, Morningglory (morningglory; [4]): 0
- Morningglory plant response rating (morningglory; [5]): 0
- Morningglory plant response rating (morningglory; [6]): 0
- Morningglory plant response rating (morningglory; [7]): 2
- Morningglory plant response rating (morningglory; [8]): 5
- Nutsedge plant response rating (purple nutsedge; [1]): 0
- Nutsedge plant response rating (purple nutsedge; [2]): 0
- Plant response rating, Nutsedge (purple nutsedge; [3]): 0
- Plant response rating, Nutsedge (purple nutsedge; [4]): 0
- Nutsedge plant response rating (purple nutsedge; [5]): 0
- Nutsedge plant response rating (purple nutsedge; [6]): 0
- Nutsedge plant response rating (purple nutsedge; [7]): 0
- Nutsedge plant response rating (purple nutsedge; [8]): 0
- Rape plant response rating (rape; [1]): 0
- Rape plant response rating (rape; [2]): 3
- Plant response rating, Rape (rape; [3]): 0
- Plant response rating, Rape (rape; [4]): 0
- Rape plant response rating (rape; [5]): 0
- Rape plant response rating (rape; [6]): 0
- Rape plant response rating (rape; [7]): 0
- Rape plant response rating (rape; [8]): 0
- Plant response rating, Bedstraw (bedstraw; Rate 62 g/ha): 0
- Plant response rating, Bedstraw (bedstraw; Rate 125 g/ha): 0
- Bedstraw plant response rating (bedstraw; Rate 250 g/ha): 0
- Bedstraw plant response rating (bedstraw; Rate 500 g/ha): 4
- Soybean plant response rating (soybean; [1]): 2
- Soybean plant response rating (soybean; [2]): 2
- Plant response rating, Soybean (soybean; [3]): 0
- Plant response rating, Soybean (soybean; [4]): 0
- Soybean plant response rating (soybean; [5]): 0
- Soybean plant response rating (soybean; [6]): 2
- Soybean plant response rating (soybean; [7]): 0
- Soybean plant response rating (soybean; [8]): 1
- Giant foxtail plant response rating (giant foxtail; [1]): 0
- Giant foxtail plant response rating (giant foxtail; [2]): 3
- Plant response rating, Giant foxtail (giant foxtail; [3]): 2
- Plant response rating, Giant foxtail (giant foxtail; [4]): 6
- Giant foxtail plant response rating (giant foxtail; [5]): 8
- Giant foxtail plant response rating (giant foxtail; [6]): 10
- Giant foxtail plant response rating (giant foxtail; [7]): 0
- Giant foxtail plant response rating (giant foxtail; [8]): 0
- Wild oats plant response rating (wild oat; [1]): 0
- Wild oats plant response rating (wild oat; [2]): 4
- Plant response rating, Wild oats (wild oat; [3]): 0
- Plant response rating, Wild oats (wild oat; [4]): 0
- Wild oats plant response rating (wild oat; [5]): 0
- Wild oats plant response rating (wild oat; [6]): 0
- Wild oats plant response rating (wild oat; [7]): 0
- Wild oats plant response rating (wild oat; [8]): 0
- Wheat plant response rating (wheat; [1]): 0
- Wheat plant response rating (wheat; [2]): 3
- Plant response rating, Wheat (wheat; [3]): 0
- Plant response rating, Wheat (wheat; [4]): 0
- Wheat plant response rating (wheat; [5]): 0
- Wheat plant response rating (wheat; [6]): 0
- Wheat plant response rating (wheat; [7]): 0
- Wheat plant response rating (wheat; [8]): 0
- Velvetleaf plant response rating (velvetleaf; [1]): 0
- Velvetleaf plant response rating (velvetleaf; [2]): 0
- Plant response rating, Velvetleaf (velvetleaf; [3]): 0
- Plant response rating, Velvetleaf (velvetleaf; [4]): 0
- Velvetleaf plant response rating (velvetleaf; [5]): 0
- Velvetleaf plant response rating (velvetleaf; [6]): 0
- Velvetleaf plant response rating (velvetleaf; [7]): 0
- Velvetleaf plant response rating (velvetleaf; [8]): 0
- Redroot pigweed plant response rating (pigweed; [1]): 2
- Redroot pigweed plant response rating (pigweed; [2]): 4
- Plant response rating, Redroot pigweed (pigweed; [3]): 0
- Plant response rating, Redroot pigweed (pigweed; [4]): 0
- Redroot pigweed plant response rating (pigweed; [5]): 0
- Redroot pigweed plant response rating (pigweed; [6]): 3
- Redroot pigweed plant response rating (pigweed; [7]): 0
- Redroot pigweed plant response rating (pigweed; [8]): 0
